One data set has as its system T1, trypsin.
T1 construct: purchased Thermo Fisher
Nature of the data set: Stability to agarose-immobilized trypsin (LC/MS). The class given is in vitro ADME. The following applies: isolated enzyme trypsin, pH 7.9. Here is the method:
2.10. Thiopeptide metabolic stability experiments
Stability to trypsin. To a solution of the analyte thiopeptide (15 µM) and the internal standard peptide (5 µM NH2-PEG5-wstndwdtnd-PEG5-CONH2;ref 16 lower case encoding is for D-amino acids; synthesized using the standard Fmoc SPPS techniques) in digestion buffer [50 mM tris, 100 mM NaCl, 10 mM EDTA, pH 7.9] was added agarose -immobilized TPCK-treated trypsin (Thermo Fisher; 1 µL of resin slurry; 100 µL final reaction volume ) that was previously washed with digestion buffer thrice. The mixture was agitated at 22 °C, and at various timepoints (0.5, 1, 2, 4, and 6 h) aliquots were withdrawn and quenched with 14 volumes of water/acetonitrile mixture [30: 70 (v/v) water: acetonitr ile with 0.1% (v/v) TFA]. […]

Data set [1] addresses T2, TNIK (Homo sapiens, UniProt Q9UKE5). Nature of the data set: Kinase selectivity profiling (STE-1 kit, ADP-Glo readout): TNIK. The format is biochemical. The following applies: 10 μM thiopeptide. Here is the method: (§1) 2.9. Kinase inhibition assays with ADP-Glo
(§2) The ADP-Glo assay system was purchased from Promega. The kinase reaction buffer contained 50 mM Tris (pH 7.5), 10 mM MgCl2 and 0.01% (v/v) triton X-100. […]
(§3) The reactions were stopped by the addition of ADP -Glo reagent (1 volume), and the luminescent signal was developed following the manufacturer’s instructions. […]
(§4) Kinase selectivity profiling. A STE-1 kinase selectivity profiling kit from Promega was utilized to assay the compounds. The experiment was conducted following the manufacturer’s instructions, and the signal was developed using the ADP-Glo assay system as described above. All measurements were performed in triplicate. After background correction, the kinase activities were normalized to a no inhibitor control , and percent remaining activity values were calculated accordingly. […]
Target sequence in this assay (Q9UKE5 whole entry): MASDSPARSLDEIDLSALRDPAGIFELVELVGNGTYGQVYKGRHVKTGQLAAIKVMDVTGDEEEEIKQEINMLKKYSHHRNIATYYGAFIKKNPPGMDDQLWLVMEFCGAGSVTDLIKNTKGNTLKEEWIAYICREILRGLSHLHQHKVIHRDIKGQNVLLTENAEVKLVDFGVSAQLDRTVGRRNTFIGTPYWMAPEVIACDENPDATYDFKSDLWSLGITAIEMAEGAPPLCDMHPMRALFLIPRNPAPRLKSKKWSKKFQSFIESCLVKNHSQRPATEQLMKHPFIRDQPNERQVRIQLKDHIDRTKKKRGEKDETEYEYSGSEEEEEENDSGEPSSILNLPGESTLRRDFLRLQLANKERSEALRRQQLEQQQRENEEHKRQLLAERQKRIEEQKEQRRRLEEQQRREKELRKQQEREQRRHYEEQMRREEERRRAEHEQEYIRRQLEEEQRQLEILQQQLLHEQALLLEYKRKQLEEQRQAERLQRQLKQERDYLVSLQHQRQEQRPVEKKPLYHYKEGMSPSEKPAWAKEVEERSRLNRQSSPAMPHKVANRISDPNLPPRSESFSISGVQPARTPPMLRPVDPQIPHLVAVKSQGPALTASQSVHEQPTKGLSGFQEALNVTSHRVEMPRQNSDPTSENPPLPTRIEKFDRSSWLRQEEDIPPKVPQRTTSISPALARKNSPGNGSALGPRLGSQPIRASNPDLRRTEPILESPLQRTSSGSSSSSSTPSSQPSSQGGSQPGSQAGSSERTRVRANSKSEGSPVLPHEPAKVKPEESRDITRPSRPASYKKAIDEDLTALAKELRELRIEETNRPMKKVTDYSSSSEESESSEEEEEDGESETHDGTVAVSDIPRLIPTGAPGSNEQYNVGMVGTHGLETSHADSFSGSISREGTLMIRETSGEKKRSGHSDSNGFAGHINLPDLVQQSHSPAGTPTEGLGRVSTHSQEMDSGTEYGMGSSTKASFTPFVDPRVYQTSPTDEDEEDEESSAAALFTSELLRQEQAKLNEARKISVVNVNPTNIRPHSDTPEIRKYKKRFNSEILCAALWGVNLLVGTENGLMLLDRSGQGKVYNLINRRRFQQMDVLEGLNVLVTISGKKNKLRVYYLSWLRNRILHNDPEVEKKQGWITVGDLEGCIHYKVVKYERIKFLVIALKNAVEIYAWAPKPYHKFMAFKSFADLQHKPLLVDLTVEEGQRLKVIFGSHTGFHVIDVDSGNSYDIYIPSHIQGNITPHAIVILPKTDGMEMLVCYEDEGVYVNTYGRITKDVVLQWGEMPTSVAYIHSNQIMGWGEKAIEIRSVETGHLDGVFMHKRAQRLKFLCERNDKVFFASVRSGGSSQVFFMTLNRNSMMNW

The nature of a further data set: in vitro. The following applies: buffer or solvent, pH 7.5.
Data set [2] deals with T2, TNIK. The data set can be described thus: Surface plasmon resonance, binding of thiopeptides to immobilized biotinylated TNIK (single-cycle, then multicycle kinetics). Details: Biotinylated TNIK (kinase domain, amino acids 1-314;); biotin (biotinylated protein); purchased Carna Biosciences (Kobe, Japan). Here is the method: 2.8. Surface plasmon resonance
In the initial experiment, binding affinities between the thiopeptides and TNIK were measured with a Biacore T200 instrument (GE Healthcare) at 25 °C. The assay buffer contained 50 mM Tris (pH 7.5), 150 mM NaCl, 10 mM MgCl2, 0.01% (v/v) tween-20 and 0.1% (v/v) DMSO. For wTP3, the assay buffer additionally contained ATP (f.c.: 1 mM).
Biotinylated TNIK was immobilized on a Biacore CAP chip (GE Healthcare) to a surface density of 950-1200 response units following the standard immobilization protocols provided by the manufacturer. The interaction sensorgrams were measured as single-cycle kinetics performed with five concentrations of the ligand sequentially flown over the chip at a flow rate of 15 μL/min allowing for 20 or 30 s association and 70 or 60 s for dissociation between the steps. The final dissociation step was allowed to proceed for 180 s. […]
was repeated in triplicate on a Biacore 8K instrument (GE Healthcare) using a multi cycle kinetics format. The experimental details were as above, except ATP was not added to the buffer for wTP3. Kinetic parameters and affinities of the interaction were determined assuming the standard 1:1 binding model using the Biacore software (GE Healthcare).
Reported KD values were calculated from the average measured association and dissociation rates (Table S5).
Target sequence in this assay (Q9UKE5 1-314): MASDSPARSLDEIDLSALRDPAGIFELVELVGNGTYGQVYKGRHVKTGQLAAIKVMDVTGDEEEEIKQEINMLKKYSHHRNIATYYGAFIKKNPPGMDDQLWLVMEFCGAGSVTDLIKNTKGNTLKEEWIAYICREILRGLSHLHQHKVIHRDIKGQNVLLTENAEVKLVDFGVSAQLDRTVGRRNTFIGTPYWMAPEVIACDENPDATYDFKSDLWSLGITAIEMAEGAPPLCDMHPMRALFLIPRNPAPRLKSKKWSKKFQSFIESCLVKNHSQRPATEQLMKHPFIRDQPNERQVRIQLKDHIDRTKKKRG

The target of data set [3] is T2, TNIK. Nature of the data set: ADP-Glo kinase inhibition assay. Conditions: 0.5 nM TNIK, 25 µM ATP, 15 µM MSTtide, 4-parameter logistic fit; for IC50: read-out: ADP-Glo IC50 against TNIK. On the set-up: Biotinylated TNIK (kinase domain, amino acids 1-314;); biotin (biotinylated protein); purchased Carna Biosciences (Kobe, Japan). The class given is biochemical. Here is the method: as §1
Target sequence in this assay (Q9UKE5 1-314): as above
The ADP-Glo assay system was purchased from Promega. The kinase reaction buffer contained 50 mM Tris (pH 7.5), 10 mM MgCl2 and 0.01% (v/v) triton X-100. TNIK (1.25 nM) was incubated with various concentrations of analyte inhibitors in kinase reaction buffer at 25 °C for 10 min. After, the reactions were initiated by the addition of ATP and substrate […]
peptide (MSTtide, sequence: NH2-NKGYNTLRRKK-CONH2;ref 14 synthesized using the standard Fmoc SPPS techniques). The final mixtures containing 0.5 nM TNIK, 25 µM ATP, 15 µM MSTtide and variable concentration of the inhibitors were incubated at 25 °C for 30 min. The reactions were stopped by the addition of ADP -Glo reagent (1 volume), and the luminescent signal was developed following the manufacturer’s instructions. Luminesce was recorded on a Tecan M1000 PRO microplate reader (Tecan Group) with 1 s acquisition time and no signal attenuation. TNIK kinase activity was normalized to a no inhibitor control, and […]
values to the standard 4-parameter logistic curve model. […]

Data set [4] deals with HCT116 colon carcinoma cells. Nature of the data set: Cell viability assay (Cell Counting Kit-8). The following applies: for cytotoxicity (cell viability) after 24 h incubation: thiopeptide acetate salts.
Method: HCT116 cells were cultured in McCoy's 5A (Modified) Medium supplemented with 1% (v/v)
penicillin-streptomycin and 10% (v/v) fetal bovine serum (all from Thermo Fisher) in a
All assays were conducted using thiopeptide acetate salts prepared as follows. Strong
anion resin (AG® 1–X8 acetate form, analytical grade, quaternary ammonium 10~50 mg)
was first washed three times with 1.6 N acetic acid and three times with 0.16 N acetic acid.
Then, a thiopeptide solution ( 0.5~3 mg, dissolved in water/ acetonitrile [1:1, v/v; ~1 ml]) was
added to the resin. After 2 h on a rotary shaker, the peptide-resin suspension was ﬁltered
and the liquid phase was recovered. The resin was washed twice with water/acetonitrile (1:1,
v/v; 0.5 ml/wash), and the solutions were combined.
Cell viability assays. HCT116 cells were grown to 40–50% confluency in 96-well plates
that the final DMSO concentration is 1% (v/v) for every sample. In the first experiment (Fig.
S44a), the cells were grown for 24 h, and the incubation time was further extended to 48 h
In both cases, the cell viability was
directly assayed with Cell Counting Kit-8 (Dojindo) following the manufacturer’s instructions
allowing 4 h to develop the signal. Absorbance at 450 nm was measured on a Tecan M1000
PRO microplate reader (Tecan Group), and live cell counts were normalized to the DMSO
control. All experiments were performed in triplicate, and in most cases, replicated at least
once to analogous outcomes.
Another data set has as its target MINK (Homo sapiens, UniProt Q8N4C8). Nature of the data set: Kinase selectivity profiling (STE-1 kit, ADP-Glo readout): MINK. The format is biochemical. Conditions: 1 μM thiopeptide. The method, then:
as §1, §2, §3, §4

Data set [5] can be described thus: Stability to glutathione (LC/MS). Conditions: for half-life at 10 µM: 5 mM glutathione in HEPES buffer, pH 7.5.
Method: (§5) Stability to glutathione. To a freshly prepared solution of glutathione (5 mM) in stability
(§6) buffer [50 mM HEPES (pH 7.5), 100 mM NaCl] was added a solution of analyte (1.5 mM
(§7) thiopeptide in DMSO; f. c.: 10 µM). The contents were mixed and transferred to a 37 °C
(§8) thermostat. At various time points (0.5, 1, 2, 4, 6, and 10 h) aliquots were withdrawn and
(§9) quenched with 2 volumes of methanol containing 30 mM iodoacetamide. The samples were
(§10) analyzed by LC/MS (0.3 µL; section 2.6) using method 3. Areas under the peak curve for all
(§11) thiopeptide-derived products in the sample (TIC chromatograms) were used to calculate
(§12) fractions of intact analyte. Thiopeptide half-life values were obtained from non-linear
(§13) regression (scipy)15 of experimentally measured values to the pseudo-first order
(§14) approximation for the reaction kinetics which can be used since [glutathione] >> [analyte].
The nature of data set [6]: Serum stability assay (LC/MS against internal standard). The following applies: human, human serum diluted in TBS, pH 7.6.
Method: The ratio of areas under the peak for the intact analyte over the internal standard (EIC
chromatograms generated with m/z ± 3 cutoff values) were used to calculate the extent of
analyte degradation. Thiopeptide half-life values were obtained from non-linear regression
(scipy)15 of experimentally measured values to the standard first order kinetic decomposition
Serum stability assay. To a solution of analyte thiopeptide (13.3 µM) and the internal
standard peptide in TBS [5 µM; buffer: 50 mM Tris (pH 7.6), 150 mM NaCl] human serum
(0.33 volumes; Cosmo Bio) was added on ice. The solutions were mixed well and transferred to a 37 °C thermostat. At various timepoints, aliquots were withdrawn and quenched with 2.3 volumes of methanol containing 30 mM iodoacetamide. The mixtures were incubated on
ice for 15 min and then at 25 °C for 30 min. The samples were then centrifuged (15300 g for
5 min), and the supernatant (0.5 µL) was analyzed by LC/MS (section 2.5) using method 6
1 – 10 min 1 – 81% B, linear ramp
Data analysis was conducted as for the trypsin digestion assays.
Data set [7] is described as follows: human serum (0.33 volumes; Cosmo Bio) added to thiopeptide and internal standard in TBS. Conditions: 37 °C, up to various timepoints, time axis of Fig. 5c runs to 30 h.
In data set [8] the test system is agarose-immobilized TPCK-treated trypsin (Thermo Fisher). The data set can be described thus: agarose-immobilized TPCK-treated trypsin in digestion buffer [50 mM tris, 100 mM NaCl, 10 mM EDTA, pH 7.9]. Conditions: 22 °C, up to 6 h.
Where [9] appears, read: SPR kinetic data, binding to immobilized TNIK.
[10] abbreviates: average from three multicycle kinetic experiments, 1:1 binding model, 25 °C.
Setting [11] is: SPR kinetic data, binding to immobilized TNIK, read-out: KD.

Read-outs that look alike come from different tables or passages of the source. Numbered stars: 1 amine (or outer) side, 2 acyl side, 3 side chain; on linkers, the order of the positions; unused ones are H or OH. Bridge positions count the residues as written; N and C are the ends. Square brackets hold non-standard residues; d marks the D form. Peptide text beside a SMILES is read from it. X1 = C=C(N[*:2])c1nc(-c2nc(-c3nc(C(=O)OC)cs3)ccc2C(=O)[*:1])cs1; NMePhe(4-NO2) = CN[C@@H](Cc1ccc([N+](=O)[O-])cc1)C(=O)O; Tic(7-OH) = O=C(O)[C@@H]1Cc2ccc(O)cc2CN1; X2 = O=C(c1csc([C@H](CO)N[*:1])n1)[*:2]; Aad = N[C@@H](CCCC(=O)O)C(=O)O; NMeA = CN[C@@H](C)C(=O)O; Dhb = C/C=C(\N)C(=O)O; Dha = C=C(N)C(=O)O; Sar = CNCC(=O)O Some results are limits rather than exact numbers.

Sequence of MINK (Q8N4C8 whole entry): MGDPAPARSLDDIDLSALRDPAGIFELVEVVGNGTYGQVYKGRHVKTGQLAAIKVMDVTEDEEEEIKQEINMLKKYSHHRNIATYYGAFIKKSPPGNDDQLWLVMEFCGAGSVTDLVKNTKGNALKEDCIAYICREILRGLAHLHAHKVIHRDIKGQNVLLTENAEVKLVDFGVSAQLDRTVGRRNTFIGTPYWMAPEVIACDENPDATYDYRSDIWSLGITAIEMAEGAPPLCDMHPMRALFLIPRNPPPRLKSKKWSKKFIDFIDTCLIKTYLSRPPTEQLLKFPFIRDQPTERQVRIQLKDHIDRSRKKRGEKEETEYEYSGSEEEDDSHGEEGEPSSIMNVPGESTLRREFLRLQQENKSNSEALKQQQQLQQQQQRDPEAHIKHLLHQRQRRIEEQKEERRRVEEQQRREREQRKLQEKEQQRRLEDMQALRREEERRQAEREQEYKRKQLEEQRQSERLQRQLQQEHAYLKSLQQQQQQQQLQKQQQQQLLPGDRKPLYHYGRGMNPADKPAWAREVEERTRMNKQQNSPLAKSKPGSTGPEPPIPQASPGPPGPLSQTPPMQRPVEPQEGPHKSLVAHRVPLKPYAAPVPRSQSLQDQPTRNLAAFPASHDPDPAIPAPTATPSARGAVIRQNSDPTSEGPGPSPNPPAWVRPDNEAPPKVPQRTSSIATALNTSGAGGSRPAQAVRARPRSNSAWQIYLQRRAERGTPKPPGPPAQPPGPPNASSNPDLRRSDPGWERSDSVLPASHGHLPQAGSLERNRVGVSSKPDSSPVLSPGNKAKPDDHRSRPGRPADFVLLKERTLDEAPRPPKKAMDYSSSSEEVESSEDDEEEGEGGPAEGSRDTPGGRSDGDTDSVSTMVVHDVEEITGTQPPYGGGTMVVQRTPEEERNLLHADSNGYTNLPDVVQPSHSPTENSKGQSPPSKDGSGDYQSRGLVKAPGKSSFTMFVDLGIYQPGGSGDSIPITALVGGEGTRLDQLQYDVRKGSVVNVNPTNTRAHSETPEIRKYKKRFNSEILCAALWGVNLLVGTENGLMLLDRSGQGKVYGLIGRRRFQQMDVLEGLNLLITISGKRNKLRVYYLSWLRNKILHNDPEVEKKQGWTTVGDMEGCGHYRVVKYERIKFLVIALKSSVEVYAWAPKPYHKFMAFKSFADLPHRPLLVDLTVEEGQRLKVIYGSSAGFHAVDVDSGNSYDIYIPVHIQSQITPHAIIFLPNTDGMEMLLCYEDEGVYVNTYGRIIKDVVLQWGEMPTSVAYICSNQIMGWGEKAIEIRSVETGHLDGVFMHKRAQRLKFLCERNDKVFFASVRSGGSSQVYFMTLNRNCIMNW
Method for in vitro: as §5, §6, §7, §8, §9, §10, §11, §12, §13, §14

For the compound `C=C1NC(=O)[C@H](C)N(C)C(=O)[C@H](CCCNC(=N)N)NC(=O)CN(C)C(=O)/C(=C/C)NC(=O)[C@H](CCCNC(=N)N)NC(=O)[C@H](CC(C)C)NC(=O)[C@H](Cc2c[nH]c3ccccc23)NC(=O)[C@H](Cc2c[nH]c3ccccc23)NC(=O)c2ccc(-c3nc(C(=O)OC)cs3)nc2-c2csc(n2)C(=C)NC(=O)CNC(=O)/C(=C/C)NC(=O)[C@H](Cc2ccc([N+](=O)[O-])cc2)N(C)C(=O)[C@H]([C@@H](C)O)NC1=O` [hTP8] (WWLR[Dhb][Sar]R[NMeA][Dha]T[NMePhe(4-NO2)][Dhb]G; linker N-C via X1), the half-life at 15 µM with trypsin was 4.9 ± 0.6 h. In addition, the “suppression of TNIK activity” value on TNIK [1] is 94%. In the data set “in vitro”, this compound showed a half-life at 10 µM of 6.4 ± 0.1 h. Also, on TNIK [2] (setting [9]), the koff is 0.00256 s⁻¹ and the kon was found to be 1.21e+06 M⁻¹ s⁻¹. For the same compound, the “KD (binding affinity to TNIK)” value at TNIK [2] (setting [10]) was “single-digit”. Further, the Kd on TNIK [2] (average from three multicycle kinetic experiments, 1:1 binding model, 25 °C, read-out: KD (binding affinity to TNIK)) was 2.1 nM. For the same compound, the IC50 at TNIK [3] was determined as 1180 ± 160 nM. Besides, the “cytotoxicity (cell viability) after 24 h incubation” value (from here on “cytotoxicity (cell viability)”) in data set [4] (10 μM) is “more cytotoxic than a small molecule control, NCB0846”. Further, the “concentrations at which strongly cytotoxic” value in data set [4] (dose-dependent assay) is reported as “above 5 µM”. Moreover, the IC50 in data set [4] (read-out: IC50, cell viability, dose-dependent 48 h incubation) was found to be 7200 nM.
With `C=C1NC(=O)[C@H](CC(C)C)NC(=O)[C@H](CC(N)=O)NC(=O)[C@H](CO)NC(=O)[C@H](CCCNC(=N)N)NC(=O)[C@H](CCCNC(=N)N)NC(=O)CN(C)C(=O)[C@H](C)N(C)C(=O)[C@H](CC(C)C)NC(=O)[C@H](CCCNC(=N)N)NC(=O)[C@@H]2CCCN2C(=O)[C@@H]2Cc3ccc(O)cc3CN2C(=O)[C@H]([C@@H](C)O)NC(=O)[C@H](Cc2c[nH]c3ccccc23)NC(=O)c2ccc(-c3nc(C(=O)OC)cs3)nc2-c2csc1n2` [hTP15] (WT[Tic(7-OH)]PRL[NMeA][Sar]RRSNL; linker N-C via X1), the “inhibition of MINK” value against MINK was 60%. The half-life at 15 µM in the data set on trypsin is 1.4 ± 0.1 h. The same compound had a half-life at 10 µM in the data set “in vitro” of 101 ± 7 h. In addition, on TNIK [2] (setting [9]), the koff was 0.0216 s⁻¹ and the kon stood at 4.78e+06 M⁻¹ s⁻¹. Further, at TNIK [2] (setting [11]), the Kd came out at 4.5 nM. Further, at TNIK [2] (setting [10]), the “KD (binding affinity to TNIK)” value is given as “single-digit”. For the same compound, on TNIK [3], the “ADP-Glo IC50 against TNIK” value was “sub-μM” and the IC50 was 150 ± 10 nM.
As to `C=C1NC(=O)[C@H](Cc2ccc([N+](=O)[O-])cc2)N(C)C(=O)[C@H]([C@@H](C)O)NC(=O)C(=C)NC(=O)C(=C)NC(=O)[C@@H]2Cc3ccc(O)cc3CN2C(=O)CN(C)C(=O)C(=C)NC(=O)CN(C)C(=O)[C@H](CCCC(N)=O)NC(=O)[C@H](Cc2c[nH]c3ccccc23)NC(=O)[C@H](Cc2c[nH]c3ccccc23)NC(=O)c2ccc(-c3nc(C(=O)OC)cs3)nc2-c2csc(n2)C(=C)NC(=O)CNC1=O` [wTP3] (WW[Aad](NH2)[Sar][Dha][Sar][Tic(7-OH)][Dha][Dha]T[NMePhe(4-NO2)][Dha]G; linker N-C via X1), in data set [5], the half-life at 10 µM is 20.6 ± 2 h. For the same compound, the “metabolic stability, τ1/2, glutathione” value in [5] (5 mM glutathione, pH 7.5, 37 °C) is 20.6 h. This compound returned a half-life at 15 µM in the data set with trypsin of more than 100 h. This compound also showed a half-life at 10 µM in [6] of 17.2 ± 1.1 h. At TNIK [2] (setting [9]), this compound displayed a koff of 0.00579 s⁻¹ and a kon of 1.37e+06 M⁻¹ s⁻¹. At TNIK [2] (setting [11]), the Kd was found to be 4.2 nM. Further, the “KD (binding affinity to TNIK)” value on TNIK [2] (setting [10]) is “single-digit”. Moreover, the “ADP-Glo IC50 against TNIK” value at TNIK [3] is recorded as “no measurable binding/inhibition”. In addition, the “cytotoxicity (cell viability)” value in data set [4] (8 μM) was “inactive”.
As to `C=C1NC(=O)CN(C)C(=O)[C@H](CC(N)=O)NC(=O)c2csc(n2)[C@H](CO)NC(=O)[C@H](Cc2c[nH]c3ccccc23)NC(=O)[C@H](Cc2c[nH]c3ccccc23)NC(=O)c2ccc(-c3nc(C(=O)OC)cs3)nc2-c2csc(n2)C(=C)NC(=O)[C@H](C)NC(=O)/C(=C/C)NC(=O)[C@@H]2Cc3ccc(O)cc3CN2C(=O)[C@H](Cc2ccc([N+](=O)[O-])cc2)N(C)C(=O)CN(C)C(=O)C(=C)NC1=O` [wTP12] (WW[X2]N[Sar][Dha][Dha][Sar][NMePhe(4-NO2)][Tic(7-OH)][Dhb]A; linker N-C via X1), the half-life at 10 µM in data set [5] is 16.4 ± 2 h; in [6] it was 56.3 ± 6.4 h. In the data set with trypsin, this compound yielded a half-life at 15 µM of more than 100 h. On TNIK [2] (setting [9]), this compound had a koff of 0.0597 s⁻¹. At TNIK [2] (setting [9]), this compound came in with a kon of 308000 M⁻¹ s⁻¹. Further, at TNIK [2] (setting [11]), the Kd came to 194 nM. At TNIK [3], the IC50 was found to be 1270 ± 90 nM. For the same compound, the “cytotoxicity (cell viability)” value in data set [4] (10 μM) was “inactive”.
As for WLRTgRaSTfTG, the fragment found entry in data set [7] is listed as “demethylated but otherwise undigested thiopeptides”.
Consider WSCNgSSgfyTA, for which the not cleaved entry in data set [8] was “did not degrade (6 h); completely stable; τ1/2 >100 h”. The fragment found entry in data set [7] is on record as “demethylated but otherwise undigested thiopeptides”.

(Values after paper PMC10979747 (Journal of the American Chemical Society, 2024).)
